The values below come from publication PMC10052609, “Cholinesterase Inhibitors from an Endophytic Fungus Aspergillus niveus Fv-er401: Metabolomics, Isolation and Molecular Docking” (Molecules, 2023).

Structures are written as SMILES. Where “and” joins values, the source holds several entries; their conditions need not be identical. Equal entries are not always repeated. Where two headings read alike, the source gives them in different places.

Broadly, the IC50 is the concentration that inhibits the measured activity by half.

The target in one series is BuChE (Homo sapiens, UniProt P06276). Kind of series: Butyrylcholinesterase inhibitory activity (Ellman's method). It is filed as biochemical. The note with it: butyrylthiocholine iodide substrate, 25 °C, read at 405 nm. How it is done:
(§1) In total, 170 μL of Tris–HCl buffer (200 mM, pH 7.5) was added, then 20 μL of the tested compounds at different concentrations ([…]), and finally 20 μL of the enzyme solution (0.1 U mL1). […] In BChE and AChE assays, butyrylthiocholine iodide and acetylthiocholine were used as substrates, and DTNB was used as an indicator. MeOH was used to dissolve the tested samples. […] Blank tests were performed by replacing the enzyme (20 μL) with buffer and recording the absorbances.
(§2) Percentage inhibition was calculated as follows: %Inhibition=Reading B−Reading A/Reading B×100
(In Ellman's method for cholinesterases, released thiocholine reacts with DTNB.)

A further series concerns the target AChE (Homo sapiens, UniProt P22303). Kind of series: Acetylcholinesterase inhibitory activity (Ellman's method). It counts as biochemical. The note with it: acetylthiocholine substrate, 25 °C, read at 405 nm. How it is done:
as §1, §2

For series [1], the system named is glutamate-induced excitotoxicity. The note with it: low doses; cited from earlier work.
For the next series, the system named is NCI-H460. The conditions noted are these: NCI-H460 cell line; read-out: Cytotoxic activity IC50; cited from earlier work.
The next series deals with MIA Pa Ca-2. The conditions noted are these: MIA Pa Ca-2 cell line; read-out: Cytotoxic activity IC50; cited from earlier work.
The next series relates to SF-268. The note with it: SF-268 cell line; read-out: Cytotoxic activity IC50; cited from earlier work.
The subject of another series is MCF-7. The note with it: MCF-7 cell line; read-out: Cytotoxic activity IC50; cited from earlier work.

Chain of AChE (P22303 32-614): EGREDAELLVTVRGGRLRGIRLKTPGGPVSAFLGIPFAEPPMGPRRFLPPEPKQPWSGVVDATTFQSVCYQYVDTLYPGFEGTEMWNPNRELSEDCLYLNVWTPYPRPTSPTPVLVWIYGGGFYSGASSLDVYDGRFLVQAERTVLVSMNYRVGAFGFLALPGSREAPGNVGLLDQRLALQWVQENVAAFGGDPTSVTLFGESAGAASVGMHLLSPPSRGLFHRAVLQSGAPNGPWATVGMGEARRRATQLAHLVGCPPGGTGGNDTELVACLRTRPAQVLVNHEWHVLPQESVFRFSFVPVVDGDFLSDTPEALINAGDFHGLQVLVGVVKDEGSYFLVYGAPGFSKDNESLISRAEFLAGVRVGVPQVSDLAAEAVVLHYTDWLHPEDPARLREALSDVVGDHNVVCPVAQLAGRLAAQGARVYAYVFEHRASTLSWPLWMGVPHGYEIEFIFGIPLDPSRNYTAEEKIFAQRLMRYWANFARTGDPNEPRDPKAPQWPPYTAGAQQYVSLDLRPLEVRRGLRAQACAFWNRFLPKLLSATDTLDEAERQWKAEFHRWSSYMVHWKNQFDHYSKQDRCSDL
Chain of BuChE (P06276 29-602): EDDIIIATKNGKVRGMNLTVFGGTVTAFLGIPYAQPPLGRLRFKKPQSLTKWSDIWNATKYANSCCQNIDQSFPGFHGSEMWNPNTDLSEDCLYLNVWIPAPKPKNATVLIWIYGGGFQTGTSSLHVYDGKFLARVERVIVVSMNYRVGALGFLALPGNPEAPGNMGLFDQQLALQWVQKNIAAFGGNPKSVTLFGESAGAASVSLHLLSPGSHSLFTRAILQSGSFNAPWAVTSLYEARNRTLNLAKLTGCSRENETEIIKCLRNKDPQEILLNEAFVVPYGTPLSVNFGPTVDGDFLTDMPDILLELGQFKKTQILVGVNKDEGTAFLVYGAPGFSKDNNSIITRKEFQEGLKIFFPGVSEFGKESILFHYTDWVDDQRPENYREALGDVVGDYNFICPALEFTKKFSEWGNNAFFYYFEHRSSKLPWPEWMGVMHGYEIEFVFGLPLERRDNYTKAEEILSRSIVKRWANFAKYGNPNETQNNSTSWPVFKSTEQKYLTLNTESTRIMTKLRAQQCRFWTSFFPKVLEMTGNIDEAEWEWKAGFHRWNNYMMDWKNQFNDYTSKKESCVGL

As for `CC1=C2C(=CO[C@H](C)[C@H]2C)C(O)=C(C(=O)O)C1=O` [Citrinin], the IC50 at BuChE (Butyryl Choline Esterase IC50, Ellman's method) was 32 µM and 30.1 µM; at AChE (Acetylcholine Esterase IC50, Ellman's method), 20.2 µM. For the same compound, the “Neuroprotective activity against glutamate-induced excitotoxicity” value in series [1] was “potential neuroprotective activity”.

`C=CC(C)(C)c1[nH]c2ccccc2c1C1=C(O)C(=O)C(c2c[nH]c3ccccc23)=C(CC=C(C)C)C1=O` [Terrequinone A]: the 50% inhibitory concentration (IC50) is 5.6 µM in the series with NCI-H460; 5.4 µM with MIA Pa Ca-2; 31.9 µM at BuChE (Ellman's method, read-out: Butyryl Choline Esterase IC50 (converted)); 13.9 µM with SF-268; 22.6 µM on AChE (Ellman's method, read-out: Acetylcholine Esterase IC50 (converted)); 6.8 µM with MCF-7.
